How the values were obtained:
Usp14 = Usp14 (Homo sapiens, UniProt P54578); test: Inhibition of Usp14 (statement in overview); assay type: biochemical
endogenous total tau = test: Degradation of endogenous total tau in primary cortical rat neurons, SDS-PAGE immunoblot with tau-5 antibody; assay type: cell-based; details: 24 hours, individual compounds (lanes 2 and 3) and combination (lane 4)
Procedure: These independently duplicated experiments were carried out in primary cortical rat neurons for 24 hours. Tau was detected after SDS-PAGE immunoblot analysis, using the tau-5 antibody.
The combined effect of Usp14 inhibitors and Hsp70 inhibitors on tau levels is shown to be synergistic in this experiment in that this effect (lane 4) is greater than the sum of the individual effects of these compounds (lanes 2 and 3). To cite one example, in FIG. 5A the individual effects are approximately 8% and 2% for Usp14 and Hsp70 inhibitors, respectively, while the combined effect is approximately 71%, far greater than the expected additive effect of approximately 10%.
This experiment was carried out in primary cortical rat neurons for 48 hours. Tau was detected after SDS-PAGE immunoblot analysis, using the tau-5 antibody.
This experiment was carried out in primary cortical rat neurons for 24 hours. Tau was detected after SDS-PAGE immunoblot analysis, using the tau-5 antibody.

Sequence of Usp14 (P54578 whole entry, species assumed): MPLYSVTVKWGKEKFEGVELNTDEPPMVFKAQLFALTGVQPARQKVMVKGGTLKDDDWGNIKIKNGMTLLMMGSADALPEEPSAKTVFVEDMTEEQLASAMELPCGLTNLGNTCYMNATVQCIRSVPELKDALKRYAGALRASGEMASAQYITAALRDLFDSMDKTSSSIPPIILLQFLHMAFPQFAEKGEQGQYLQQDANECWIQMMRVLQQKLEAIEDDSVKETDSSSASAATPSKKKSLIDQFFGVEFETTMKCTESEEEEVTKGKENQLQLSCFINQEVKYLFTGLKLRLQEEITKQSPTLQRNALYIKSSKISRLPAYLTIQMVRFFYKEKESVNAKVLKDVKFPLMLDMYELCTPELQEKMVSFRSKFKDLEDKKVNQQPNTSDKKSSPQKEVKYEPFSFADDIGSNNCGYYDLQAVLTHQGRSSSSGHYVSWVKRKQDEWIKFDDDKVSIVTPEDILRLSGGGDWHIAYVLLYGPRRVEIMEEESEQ

Structure (SMILES) | Usp14 inhibition, qualitative (Usp14) | effect on tau levels (FIG. 5A) (endogenous total tau)
Cc1cc(C(=O)CN2CCCC2)c(C)n1-c1ccc(F)cc1 [IU1, 1-(1-(4-fluorophenyl)-2,5-dimethyl-1H-pyrrol-3-yl)-2-(pyrrolidin-1-yl)ethanone] | inhibitor of Usp14 | –
Cc1cc(C(=O)CN2CCCCC2)c(C)n1-c1ccc(Cl)cc1 [IU1-47] | more potent variant of IU1 | approximately 8%

— US20140275169A1, “Combination Therapies for Enhancing Protein Degradation” (The Regents of the University of Michigan, priority 2013, published 2014)
